Measured values from PubChem BioAssay AID712 (Emory University Molecular Libraries Screening Center, 2007).
The source made the active and inactive calls. The rule behind the calls is not given here.

Target: Heat shock protein HSP 90-alpha (Homo sapiens) (UniProt P07900)
Test: tumor Hsp90 inhibitor potency, dose response (AID 712)
Details: Hsp90 inhibition assay

Row | Compound | IC50
1 | CC(C)CN1C(=O)NC(NC(=O)c2ccco2)(C(F)(F)F)C1=O (centres undefined) | > 50 µM (inactive)
2 | Cc1ccc(CNc2ccc(O)cc2)cc1 | inactive
3 | CCc1cc(-c2[nH]ncc2-c2ccc3c(c2)OCO3)c(O)cc1O | 1.97 µM
4 | O=C(c1sc2ccccc2c1Cl)N(Cc1ccco1)C1CCS(=O)(=O)C1 (centres undefined) | > 50 µM (inactive)
5 | CCOc1ccc(S(=O)(=O)Nc2ccc3c(c2)OCO3)c2cccnc12 | 16 µM
6 | OCCCc1nc2n(n1)C(c1ccccc1)C=C(c1ccccc1)N2 (centres undefined) | > 50 µM (inactive)
7 | CN(C)C=Nc1c(Br)cc(Br)c2nonc12 | > 50 µM (inactive)
8 | Nc1cc(N)c(OCC(F)(F)F)cc1OCC(F)(F)F | inactive
9 | O=C(NCCCn1ccnc1)c1noc2c1CCc1ccccc1-2 | 13.5 µM
10 | Cc1cc(SCC(N)=O)nc(SCC(=O)c2ccccc2)n1 | > 50 µM (inactive)
11 | C=CCNC(=O)CN(c1cccc(Br)c1)S(C)(=O)=O | > 50 µM (inactive)
12 | O=C1C(c2ccc3ccccc3n2)=C(O)c2ccccc21 | > 50 µM (inactive)
13 | CCOc1ccc2ccccc2c1-c1cc(NS(=O)(=O)c2cc(Cl)ccc2Cl)ccc1NC(=O)OC(C)(C)C | > 50 µM (inactive)
14 | Cc1ccccc1OCC(O)Cn1c(NCCN(C)C)nc2c1c(=O)n(C)c(=O)n2C (centres undefined) | > 50 µM (inactive)
15 | Cc1cccc(NC(=O)Cn2nnc(-c3cccs3)n2)c1C | > 50 µM (inactive)
16 | COc1ccc(NS(=O)(=O)c2ccccc2)c(OC)c1 | > 50 µM (inactive)
17 | Cc1ccc(S(=O)(=O)Nc2ccc(O)c(-c3ccccc3O)c2)cc1 | > 50 µM (inactive)
18 | Cc1ccc(NC(=O)CC2SCCNC2=O)cc1Cl (centres undefined) | > 50 µM (inactive)
19 | CCCCCC(=O)N1CC2(C)CN(C(=O)CCCCC)CC(C)(C1)C2=O | > 50 µM (inactive)
20 | O=C(c1n[nH]c(=O)c2ccccc12)N1CCN(C2c3ccccc3-c3ccccc32)CC1 | > 50 µM (inactive)
21 | Nc1cc(=O)c2n[nH]nc2[nH]1 | > 50 µM (inactive)
22 | Cc1ccc(C(=O)O)cc1S(=O)(=O)NCC1CCCO1 (centres undefined) | > 50 µM (inactive)
23 | COc1ccc(C(=O)c2c(C)n(C)c(=O)n(C)c2=O)cc1 | > 50 µM (inactive)
24 | COc1ccc(S(=O)(=O)Nc2ccc(O)c(-c3ccccc3O)c2)cc1OC | > 50 µM (inactive)
25 | COc1ccc(S(=O)(=O)Nc2ccc3c(c2)OCO3)cc1OC | inactive
26 | COc1ccc2c(c1-c1cc(NS(=O)(=O)c3cc(Cl)ccc3Cl)ccc1N)OCO2 | > 50 µM (inactive)
27 | CCCCn1c(NC(=O)c2ccccc2)c(C#N)c2nc3ccccc3nc21 | 27.1 µM

Row | Compound | IC50
28 | COc1ccc(C2CC(c3ccccc3O)=NN2)cc1OC (centres undefined) | > 50 µM (inactive)
29 | Cc1ccc(S(=O)(=O)Nc2ccc(F)c(-c3c(O)ccc4c3OCO4)c2)cc1 | 25 µM
30 | Nc1cc(N)nc(SCC(=O)Nc2nonc2N)n1 | > 50 µM (inactive)
31 | O=S(=O)(Nc1cc(OCc2ccccc2)cc2cccnc12)c1ccc(F)cc1 | > 50 µM (inactive)
32 | Oc1ccc(-c2onc(C(F)(F)F)c2-c2cscn2)c(O)c1 | 18 µM
33 | O=c1c(-c2ccc3c(c2)OCCO3)coc2c(CN3CCOCC3)c(O)ccc12 | > 50 µM (inactive)
34 | O=C(O)c1cc(O)c2c(c1)C(=O)c1cccc(O)c1C2=O | 3.34 µM
35 | O=C1C(=Cc2ccccn2)CNCC1=Cc1ccccn1 | > 50 µM (inactive)
36 | Cc1coc2c(O)cc3c(c12)OC1(N2CCCCC2)C(=O)NCCCC31 (centres undefined) | 6.62 µM
37 | Oc1ccc(-c2nc(-c3ccc(O)c(O)c3)cs2)cc1 | 0.74 µM
38 | Cn1c(=O)c2c(nc(CN3CCc4ccccc4C3)n2CCCO)n(C)c1=O | > 50 µM (inactive)
39 | CCOC(=O)N1CCC(NC(=O)CSCc2nc(-c3sccc3C)oc2C)CC1 | > 50 µM (inactive)
40 | CCCCn1c(NC(=O)c2ccco2)c(C(=O)OCC)c2nc3ccccc3nc21 | > 50 µM (inactive)
41 | Nc1nonc1N1CCCCC1 | > 50 µM (inactive)
42 | Nc1cccc(S(=O)(=O)Nc2ccc(N)c(-c3ccccc3O)c2)c1 | > 50 µM (inactive)
43 | Nc1ccc(NS(=O)(=O)c2cc(Cl)ccc2Cl)cc1-c1ccccc1O | > 50 µM (inactive)
44 | CCn1nc(-c2ccccc2)nc2c(=O)n(C)c(=O)nc1-2 | 0.136 µM
45 | O=C1c2cccnc2C(=O)N1Cc1ccc2c(c1)OCO2 | > 50 µM (inactive)
46 | O=C(NC1(O)C(=O)c2ccccc2C1=O)c1ccccc1 | 19.5 µM
47 | CC(=O)Oc1cc2c(C(=O)NCCN3CCOCC3)c(C)oc2c2ccccc12 | 19.7 µM
48 | COc1ccccc1-c1nnc2n1N=C(c1ccc(O)c(O)c1)CS2 | 10.7 µM
49 | O=C(CSc1nnc(Cc2cc(=O)[nH]c(=O)[nH]2)n1-c1ccccc1)NCC1CCCO1 (centres undefined) | > 50 µM (inactive)
50 | COc1cccc(C(=O)NCC(=O)n2nc(C)cc2C)c1 | > 50 µM (inactive)
51 | COc1ccc2c(c1-c1cc(NS(=O)(=O)c3ccc(C)cc3)ccc1N)OCO2 | > 50 µM (inactive)
52 | COC(=O)c1cc(=O)[nH]c2ccc(C)cc12 | > 50 µM (inactive)
53 | O=S(=O)(Nc1ccc(O)c(-c2ccccc2O)c1)c1cc(Cl)ccc1Cl | > 50 µM (inactive)
54 | N#Cc1cc(S(=O)(=O)Nc2ccc(F)c(-c3c(O)ccc4c3OCO4)c2)ccc1F | 25 µM
